This note sets out measurements from article PMC8508660 (2021).

In assay [1] the test system is TBA (DNA, aptamer) GGTTGGTGTGGTTGG
Nature of the assay: CD melting, 295 nm. The settings on record: 100 mM K+; 10 mM cacodylate pH 7.2; 2 µM DNA, 3 equiv. (6 µM) ligand; derived from two Tm (±0.5).

Assay [2] concerns c-MYC (DNA, G4) TGAGGGTGGGTAGGGTGGGTAA
Nature of the assay: CD melting, 265 nm. The settings on record: 10 mM K+, 90 mM Li+; 10 mM cacodylate pH 7.2; 2 µM DNA, 3 equiv. (6 µM) ligand; derived from two Tm (±0.5).

For assay [3], the system named is 22HT (DNA, G4) AGGGTTAGGGTTAGGGTTAGGG
Nature of the assay: CD melting, 290 nm. The settings on record: 100 mM K+; 10 mM cacodylate pH 7.2; 2 µM DNA, 3 equiv. (6 µM) ligand; derived from two Tm (±0.5).

Assay [4] has the same test system. Nature of the assay: CD melting, 295 nm. The settings on record: 100 mM Na+; 10 mM cacodylate pH 7.2; 2 µM DNA, 3 equiv. (6 µM) ligand; derived from two Tm (±0.5).

For `COc1nc2c(N)ncnc2[n+]2ccccc12`, the ΔTm is -0.4 °C in assay [1], -0.2 °C in assay [2], 0.7 °C in assay [3] and -0.2 °C in assay [4].
